Results on 2 molecules are retold here after patent publication US20100144008A1, “TREATMENT OF FABRY DISEASE” (ACADEMISCH ZIEKENHUIS BIJ DE UNIVERSITEIT VAN AMSTERDAM, priority 2006, published 2010).

Like-named read-outs stand apart in the source and are kept apart here.

Data set [1] in a line: Partitioning of lyso-CTH in Bligh and Dyer and butanol/water extraction. The format is physicochemical. On the procedure:
An optimal extraction procedure for lyso-CTH from plasma samples was established. A double extraction was carried out, first a Bligh and Dyer extraction followed by butanol extraction.

The target in data set [2] is T1, alpha-galactosidase A (Homo sapiens, UniProt P06280).
T1 sequence (P06280 32-429): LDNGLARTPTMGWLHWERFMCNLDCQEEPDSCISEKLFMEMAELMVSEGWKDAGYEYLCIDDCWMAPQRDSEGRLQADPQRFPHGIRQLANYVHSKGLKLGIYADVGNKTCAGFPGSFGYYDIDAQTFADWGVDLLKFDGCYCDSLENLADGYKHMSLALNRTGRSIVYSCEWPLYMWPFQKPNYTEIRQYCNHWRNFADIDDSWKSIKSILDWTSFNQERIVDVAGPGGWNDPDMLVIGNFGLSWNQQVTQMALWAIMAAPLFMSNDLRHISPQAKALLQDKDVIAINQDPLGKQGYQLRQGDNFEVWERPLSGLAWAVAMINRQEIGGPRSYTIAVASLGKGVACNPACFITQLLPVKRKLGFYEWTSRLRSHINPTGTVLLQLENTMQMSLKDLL
In words: Inhibition of alpha-galactosidase A by lyso-CTH. The format is biochemical.

In data set [3] the target is T2, alpha-galactosidase B (Homo sapiens, UniProt P17050).
T2 sequence (P17050 18-411): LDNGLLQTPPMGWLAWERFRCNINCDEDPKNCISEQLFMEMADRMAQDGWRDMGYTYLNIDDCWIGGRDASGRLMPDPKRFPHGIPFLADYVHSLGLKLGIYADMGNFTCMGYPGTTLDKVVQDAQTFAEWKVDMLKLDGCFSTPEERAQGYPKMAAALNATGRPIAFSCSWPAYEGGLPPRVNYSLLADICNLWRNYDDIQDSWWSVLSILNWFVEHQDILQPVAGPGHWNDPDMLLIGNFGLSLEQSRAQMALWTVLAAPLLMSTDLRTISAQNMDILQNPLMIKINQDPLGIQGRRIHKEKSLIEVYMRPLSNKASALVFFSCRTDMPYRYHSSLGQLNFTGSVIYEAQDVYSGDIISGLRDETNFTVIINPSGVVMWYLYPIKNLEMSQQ
The experiment in a line: Inhibition of alpha-galactosidase B by lyso-CTH. It counts as biochemical.

In data set [4] the test system is SMC-41 cell line. In words: Toxic effect in vitro: 3H thymidine incorporation and proliferation in SMC-41 cell line. It counts as cell-based. As to conditions: lyso-CTH 0.065-0.65 μM (as found in plasma of Fabry patients); for proliferation of SMC-41 (smooth muscle cell proliferation): in vitro. As to the method:
The toxic effect of lyso-CTH was determined in vitro in SMC-41 cell line. ^3H thymidine incorporation (per 24 h) was determined as a function of lyso-CTH concentration.

The nature of data set [5]: Plasma circulation of alphaGAL replacement enzyme in mouse model of Fabry disease. It counts as in vivo. The settings on record: compared to underivatised agalsidase beta. On the procedure:
Via standard methods agalsidase beta (Fabrazyme®, Genzyme) is pegylated.
In a mouse model of Fabry disease at different time-points plasma samples are analysed for the presence of agalsidase beta to give reference values and at the same different time-points plasma samples are analysed for the presence of pegylated agalsidase beta.

In data set [6] the test system is lyso-CTH. The experiment in a line: Plasma lyso-CTH concentration in mouse model of Fabry disease after enzyme. It counts as in vivo. As to conditions: compared to underivatised agalsidase beta.

For `CCCCCCCCCCCCC/C=C/[C@@H](O)[C@@H](N)CO[C@@H]1O[C@H](CO)[C@@H](O[C@@H]2O[C@H](CO)[C@H](O[C@H]3O[C@H](CO)[C@H](O)[C@H](O)[C@H]3O)[C@H](O)[C@H]2O)[C@H](O)[C@H]1O` [lyso-CTH, lyso-ceramide trihexosamide], the “Partitioning of lyso-CTH (% of total), lower phase” value in data set [1] (Bligh and Dyer extraction) was 10 % of total; in data set [1] (butanol/water extraction), 2 % of total. For the same molecule, the “Partitioning of lyso-CTH (% of total), upper phase” value in data set [1] (Bligh and Dyer extraction) is 90 % of total; in data set [1] (butanol/water extraction), 99 % of total. Further, the “Inhibition of alpha-galactosidase A” value in data set [2] is listed as “inhibits”; in data set [2] (listed as Lyso-CTH) it was “potent inhibitor”. For the same molecule, the “Inhibition of alpha-galactosidase B” value in data set [3] is “inhibits”; in data set [3] (listed as Lyso-CTH), “potent inhibitor”. Further, in data set [4] (SMC-41 cell line), the “3H thymidine incorporation (per 24 h)” value is recorded as “increased isotope incorporation”. For the same molecule, the “proliferation of SMC-41 (smooth muscle cell proliferation)” value is on record as “increased proliferation” in data set [4] and “promote in vitro smooth muscle cell proliferation” in data set [4] (listed as Lyso-CTH).
With “pegylated agalsidase beta: agalsidase beta (Fabrazyme, Genzyme) pegylated via standard methods”, the plasma circulation time entry in data set [5] is “increase in plasma circulation time”. For the same molecule, the “concentration of lyso-CTH in the plasma samples” value in data set [6] is recorded as “significantly lower”.
